Non-standard residues stand in square brackets, D forms with d. No end group written: not given here.

In one assay the test system is Male DIO mice. The assay is described as follows: Metabolic parameters in diet induced obese (DIO) mice, Example 16. Particulars: 5 mg/kg twice daily intraperitoneal, 10 days, N = 8. The class given is in vivo, mouse. The method, then:
Male C57BL/6 mice were maintained on a high fat diet for 18 weeks to develop diet induced obesity. Animals were randomized to treatment groups based on blood glucose levels and body weight. The peptides of the invention were administered to groups of male DIO mice twice daily by intraperitoneal injection at a dose of 5 mg/kg/dose for 10 days (N=8 animals per treatment group). An additional group of male DIO mice (n=8) received vehicle (water) alone administered twice daily by intraperitoneal injection. Body weight, blood glucose levels and food intake were monitored. Body mass distribution (fat vs lean) was determined by quantitative whole body NMR prior to dosing and at the end of dosing.

Assay [1] has as its system C2C12 cells. The assay is described as follows: Cellular ROS levels induced by TBHP in C2C12 cells (DCFDA). The format is cell-based, mouse. The conditions noted are these: peptide 10 μM 18-20 hours, then TBHP 100 μM 1 hour; relative to TBHP control. The protocol:
The protective or synergistic effect of the peptides on cellular levels of reactive oxygen species (ROS) induced by oxidative stress can be assessed using an assay of ROS in cultured cells such as mouse myoblasts exposed to a suitable oxidative stress. Peptides were initially prepared as 10 mM stock in DMSO, diluted to 1 mM in H2O, and added at a final concentration of 10 μM (0.1% DMSO). […] TBHP was used at final concentration of 100 μM. Sulforaphane at final concentration of 10 μM was used as a protective control against TBHP induced ROS production. […] C2C12 cells were grown in DMEM supplemented with 20% FBS with 100 IU/ml penicillin and 100 μg/ml streptomycin. […] C2C12 cells were seeded at 7,500 cells per well on 96-well plates. […] After 18-20 hours of incubation the cells were loaded with DCFDA for 45 min. TBHP at 100 μM was then added to the appropriate wells for 1 hour. ROS activity was determined using a DCFDA Cellular ROS Detection Assay kit (Abcam, Cambridge, Mass.) according to the manufacturer's instructions. Fluorescence in each sample well on the plate was measured using a Cytation 3 plate reader at Ex/Em=485/535 nm (BioTek, Winooski, Vt.). Activity was calculated relative to TBHP control. The relative standard deviation of the sulforaphane control was <20%. The ROS level produced by the sulforaphane control in the presence of TBHP was 52% of the TBHP control.

Assay [2] relates to C2C12 cells. The assay is described as follows: ATP levels in cultured C2C12 cells (CellTiter-Glo). The class given is cell-based, mouse. Particulars: peptide 10 μM, 3 days with readdition every 24 hours, relative to 0.1% DMSO control. The protocol: The effect of the peptides on cellular metabolism can be assessed using an assay of ATP levels in cultured cells such as mouse myoblast cells. Peptides were initially prepared as 10 mM stock in DMSO, diluted to 1 mM in H2O, and used at a final concentration of 10 μM (0.1% DMSO). […] Lovastatin was prepared as 10 mM stock in 70% Ethanol and used at final concentration of 10 μM containing 0.1% DMSO. CellTiter-Glo® Assay kit was purchased from Promega (Madison, Wis.). […] C2C12 cells were grown in DMEM medium supplemented with 20% FBS with 100 IU/ml penicillin and 100 μg/ml streptomycin. […] C2C12 cells were seeded at 800 cells per well on 96-well plates. […] ATP levels were determined using a CellTiter-Glo Assay kit according to the manufacturer's instructions. Luminescence for each sample well on the plate was measured using a Cytation 3 plate reader (BioTek, Winooski, Vt.). Activity was calculated relative to 0.1% DMSO treated control. The relative standard deviation of the result for the 0.1% DMSO treated control was <5%. […] ATP levels for treatment with lovastatin (10 μM) were <50% of the 0.1% DMSO treated control value.
(In general: Cellular ATP, detected with luciferase, serves as a proxy for viable cell number.)

The target of assay [3] is T1, Apelin Receptor (APJ) (Homo sapiens, UniProt P35414).
T1 sequence (P35414 1-380): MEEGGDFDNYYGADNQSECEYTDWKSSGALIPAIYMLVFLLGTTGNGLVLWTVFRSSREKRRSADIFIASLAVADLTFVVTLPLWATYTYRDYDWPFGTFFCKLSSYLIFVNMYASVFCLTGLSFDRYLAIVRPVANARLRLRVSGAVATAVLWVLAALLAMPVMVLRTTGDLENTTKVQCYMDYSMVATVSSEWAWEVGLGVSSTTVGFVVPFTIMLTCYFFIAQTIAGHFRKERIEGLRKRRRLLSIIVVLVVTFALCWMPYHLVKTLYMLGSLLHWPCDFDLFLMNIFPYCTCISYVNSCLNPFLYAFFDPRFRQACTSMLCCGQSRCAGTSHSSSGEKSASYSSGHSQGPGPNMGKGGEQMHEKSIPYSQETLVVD
Description: cAMP levels in CHO-K1 AGTRL1 Gi cells, single concentration (HitHunter). The format is cell-based. The arrangement: host or cells: CHO-K1 AGTRL1 Gi cells. Particulars: peptide 10 μM with 10 μM forskolin, 30 min; 500 nM Pyr-Apelin-13 response = 100%.
Description: The effect of the peptides on activation of Apelin Receptor (APJ) can be assessed using an assay to monitor inhibition of cAMP expression in cultured cells overexpressing APJ such as CHO-K1, derived from Chinese hamster ovary. Peptides were initially prepared as 30 mM stock in DMSO and diluted to 3 mM in H2O or directly as 3 mM stock in H2O; used at a final concentration of 10 μM (0-0.1% DMSO). […] CHO-K1 AGTRL1 Gi cells stably overexpressing APJ were purchased from Eurofins-DiscoverX (Fremont, Calif.). CHO-K1 AGTRL1 Gi cells were seeded onto 384-well plates in standard culture medium (F12K+10% Fetal Bovine Serum+antibiotics) at 10,000 cells/well and allowed to adhere overnight at 37° C. in a humidified atmosphere of 5% CO2/95% air. […] Following 30 min incubation at 37° C., cAMP levels in response to various treatments were quantified using HitHunter cAMP kit according to manufactures protocol (Eurofins-DiscoverX); chemiluminescent signal was measured using a Cytation 3 plate reader (BioTek, Winooski, Vt.).

For assay [4], the target named is T1, Apelin Receptor (APJ). Description: β-Arrestin recruitment in CHO-K1 AGTRL1 β-Arrestin cells (PathHunter). The format is cell-based. Set-up: host or cells: CHO-K1 AGTRL1 β-Arrestin cell line. The conditions noted are these: peptide 10 μM, 90 min; 500 nM Apelin-13 response = 100%. For orientation: Recruitment of arrestin is a read-out of receptor activation apart from second messengers.
Description: The effect of the peptides on activation of Apelin Receptor (APJ) can be assessed using an assay to monitor β-Arrestin recruitment in cultured cells overexpressing APJ such as CHO-K1, derived from Chinese hamster ovary. β-Arrestin recruitment assays were performed by Eurofins-DiscoverX (Fremont, Calif.) using CHO-K1 AGTRL1 β-Arrestin cell line (co-expressing ProLink tagged human APJ and Enzyme Acceptor tagged β-Arrestin) and PathHunter detection kit. Peptides were initially prepared either as 10 mM stock in DMSO and used at a final concentration of 10 μM (0.1% DMSO). CHO-K1 AGTRL1 β-Arrestin cells were seed onto 384-well plates in standard medium. […] Following 90 min incubation at 37° C., β-Arrestin recruitment in response to various treatments was quantified using a chemiluminescent complementation reporter assay to measure association of tagged human APJ (ProLink tag) and tagged β-Arrestin (Enzyme Acceptor tag).

In the case of “8 (RRMMGMVFQCLCG[dA]; cysteine pairing not given here) [compound 8]”, in the assay on Male DIO mice, the “Difference from Vehicle Control: Decrease from Baseline in Blood Glucose” value was -16.9 mg/dL, the “Difference from Vehicle Control: Decrease from Baseline in Body Weight” value is recorded as −8.01% and the “Difference from Vehicle Control: Decrease from Baseline in Fat Mass” value is -3.88 g. Further, in the assay with C2C12 cells [1], the “Cellular ROS Levels Induced by TBHP, Percent of Control” value is 102.1%. The “ATP Levels, Percent of Control Activity” value in the assay on C2C12 cells [2] came to 99.5%.
For “10 (RRMMGMVYQCLCG[dA]; cysteine pairing not given here) [compound 10]”, in that order: -8.37 mg/dL, −5.47%, -2.16 g, 102.3% and 100.9%.
Take 11 (RRMMGMVAQCLCGA) [compound 11]: in the assay on Male DIO mice, the “Difference from Vehicle Control: Decrease from Baseline in Blood Glucose” value is -4.91 mg/dL, the “Difference from Vehicle Control: Decrease from Baseline in Body Weight” value is reported as −4.05% and the “Difference from Vehicle Control: Decrease from Baseline in Fat Mass” value is -2.34 g. In the assay with C2C12 cells [1], the “Cellular ROS Levels Induced by TBHP, Percent of Control” value came out at 100.6%. In addition, the “ATP Levels, Percent of Control Activity” value in the assay with C2C12 cells [2] is given as 98.0%.
For “12 (RRMMGMVEQCLCG[dA]; cysteine pairing not given here) [compound 12]”, in that order: -6.75 mg/dL, −2.89%, -1.73 g, 105% and 102.6%.
With 13 (RRMMGMVFQELCG[dA]) [compound 13], the “Cellular ROS Levels Induced by TBHP, Percent of Control” value in the assay on C2C12 cells [1] amounted to 106.8%. Besides, in the assay on C2C12 cells [2], the “ATP Levels, Percent of Control Activity” value is 102.8%.
As for 14 (RRMMGMVFQCLEG[dA]) [compound 14], the “Cellular ROS Levels Induced by TBHP, Percent of Control” value in the assay on C2C12 cells [1] was found to be 105.1%. The “ATP Levels, Percent of Control Activity” value with C2C12 cells [2] was found to be 102.1%.
For 16 (RRMMGMVFQCLSG[dA]) [compound 16], the “Cellular ROS Levels Induced by TBHP, Percent of Control” value in the assay with C2C12 cells [1] is on record as 106.6%. Moreover, the “ATP Levels, Percent of Control Activity” value in the assay on C2C12 cells [2] is given as 94.7%.
For 17 (RRMMGMVFQSLSG[dA]) [compound 17], in that order: 113.6% and 100.0%.
With “18 (RRXXGXVFQCLCGA; (3)..(3) Xaa is Norleucine; (4)..(4) Xaa is Norleucine; (6)..(6) Xaa is Norleucine; (14)..(14) D-Ala) [compound 18]”, the “Cellular ROS Levels Induced by TBHP, Percent of Control” value with C2C12 cells [1] amounted to 109.4%. The “ATP Levels, Percent of Control Activity” value in the assay on C2C12 cells [2] is on record as 95.5%.
On the same counts, the results for “19 (RRMVFQCLCG[dA]; cysteine pairing not given here) [compound 19]” are 92% and 93.6%.
Turning to `CSCC[C@H](NC(=O)CNC(=O)[C@H](CCSC)NC(=O)[C@H](CCSC)NC(=O)[C@H](CCCNC(=N)N)NC(=O)[C@H](CCCNC(=N)N)NC(=O)[C@@H](N)CCSC)C(=O)N[C@H](C(=O)N[C@@H](Cc1ccccc1)C(=O)N[C@@H](CCC(N)=O)C(=O)N[C@@H](CS)C(=O)N[C@@H](CC(C)C)C(=O)N[C@@H](CS)C(=O)NCC(=O)N[C@@H](CC(C)C)C(=O)O)C(C)C` [compound 7], in the assay with Male DIO mice, the “Difference from Vehicle Control: Decrease from Baseline in Blood Glucose” value is -20.0 mg/dL, the “Difference from Vehicle Control: Decrease from Baseline in Body Weight” value is given as −3.19% and the “Difference from Vehicle Control: Decrease from Baseline in Fat Mass” value is -0.84 g. Also, in the assay on C2C12 cells [1], the “Cellular ROS Levels Induced by TBHP, Percent of Control” value was determined as 98.6%. Also, the “cAMP Levels, Percent of Pyr-Apelin-13 Control Activity” value at Apelin Receptor (APJ) [3] is recorded as 109%. In addition, the “β-Arrestin Recruitment, Percent of Apelin-13 Control Activity” value on Apelin Receptor (APJ) [4] was 91%. For the same compound, the “ATP Levels, Percent of Control Activity” value in the assay with C2C12 cells [2] is recorded as 106.6%.
For the compound `CSCC[C@H](NC(=O)CNC(=O)[C@H](CCSC)NC(=O)[C@H](CCSC)NC(=O)[C@H](CCCNC(=N)N)NC(=O)[C@@H](N)CCCNC(=N)N)C(=O)N[C@H](C(=O)N[C@@H](Cc1ccccc1)C(=O)N[C@@H](CCC(N)=O)C(=O)N[C@@H](CO)C(=O)N[C@@H](CC(C)C)C(=O)N[C@@H](CS)C(=O)NCC(=O)N[C@H](C)C(=O)O)C(C)C` [compound 15], the “Cellular ROS Levels Induced by TBHP, Percent of Control” value with C2C12 cells [1] stood at 105.9%. At Apelin Receptor (APJ) [3], the “cAMP Levels, Percent of Pyr-Apelin-13 Control Activity” value came out at 105%. On Apelin Receptor (APJ) [4], the “β-Arrestin Recruitment, Percent of Apelin-13 Control Activity” value amounted to 40%. Moreover, the “ATP Levels, Percent of Control Activity” value in the assay with C2C12 cells [2] was 100.4%.

These data come from patent US20220324909A1, “THERAPEUTIC PEPTIDES” (COHBAR, INC., priority 2019, published 2022).
